IC50 data for six compounds are collected here from patent US20230233569A1 (Revolution Medicines, Inc., priority 2020, published 2023).

A word on the IC50: it is the concentration needed to halve the response being measured.

One assay deals with NCI-H358 (K-Ras G12C). Briefly: CellTiter-Glo cell viability assay, 5-day treatment. The conditions noted are these: Homo sapiens, NCI-H358, 120 h, 5-day treatment; read-out: H358 Cell Viability assay data (K-Ras G12C, IC50). Type of assay: cell-based. Summed up:
(§1)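 Compounds were dispensed directly onto seeded cells and incubated for 5 days, then plates were equilibrated to room temperature for about 30 minutes before luminescence reading. Signals were expressed as percent of the mean DMSO control and fitted with a four-parameter logistic curve.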
(In general: ATP-based viability assays read luminescence as a measure of living cells.)

A further assay deals with Capan-1 (K-Ras G12V). The description is as above. It counts as cell-based. Conditions: Homo sapiens, CAPAN-1, 120 h, 5-day treatment; read-out: Capan-1 Cell Viability assay data (K-Ras G12V, IC50). Summed up: as §1
For a further assay, the target named is KRAS G13D (Homo sapiens, UniProt P01116+P62937, G13D). Briefly: Disruption of BRAF RBD interaction with Ras (FRET / MOA assay, with Cyclophilin A). It counts as biochemical. The method, boiled down: (§2)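 TR-FRET: nucleotide-loaded K-Ras mutant or WT with Cyclophilin A and BRAF RBD, compound 10-point 3-fold from 30 μM final, 3 h at 25° C, then anti-His Eu (10 nM) and anti-GST APC (50 nM) for 1.5 h. Decreased FRET ratio versus DMSO gives IC50.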

Another assay concerns the target KRAS G12S (Homo sapiens, UniProt P01116+P62937, G12S). The assay is described as above. Type of assay: biochemical. Summed up: as §2
The next assay deals with KRAS G12C (Homo sapiens, UniProt P01116+P62937, G12C). Described as above. Type of assay: biochemical. Summed up:
as §2

The next assay addresses KRAS G12V (Homo sapiens, UniProt P01116+P62937, G12V). Described as above. It counts as biochemical. The method, boiled down:
as §2

For another assay, the target named is KRAS G12D (Homo sapiens, UniProt P01116+P62937, G12D). The assay is described as above. It counts as biochemical. Summed up: as §2
In a further assay the target is KRAS WT (Homo sapiens, UniProt P01116+P62937). Described as above. It counts as biochemical. The method, boiled down:
as §2

A further assay deals with KRAS G13C (Homo sapiens, UniProt P01116+P62937, G13C). The assay is described as above. It counts as biochemical. The method, boiled down: as §2
The target in another assay is NRAS G12C (Homo sapiens, UniProt P01111+P62937, G12C). Described as above. It counts as biochemical.
The mark [1] stands for this setting: KRAS G13D, read-out: KRAS G13D FRET data IC50.
[2] abbreviates: read-out: KRAS G12S FRET data, IC50.
Where [3] appears, read: read-out: KRAS G12C FRET data, IC50.
Where [4] appears, read: KRAS G12V, read-out: KRAS G12V FRET data IC50.
Where [5] appears, read: read-out: KRAS G12D FRET data, IC50.
Setting [6] is: KRAS WT, read-out: KRAS WT FRET data IC50.
Setting [7] is: read-out: KRAS G13C FRET data, IC50.
Where [8] appears, read: NRAS G12C, read-out: NRAS G12C FRET data IC50.

Each structure is given as a SMILES string. Read-outs that look alike come from different tables or passages of the source.

Sequence of KRAS G12S (P01116 1-169 isoform P01116-2 G12S limits assumed): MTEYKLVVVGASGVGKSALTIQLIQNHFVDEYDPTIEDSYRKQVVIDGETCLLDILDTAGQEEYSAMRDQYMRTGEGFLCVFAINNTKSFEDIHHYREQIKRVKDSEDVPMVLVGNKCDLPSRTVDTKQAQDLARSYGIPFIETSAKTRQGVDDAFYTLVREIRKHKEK
Sequence of KRAS G12S (P62937 whole entry): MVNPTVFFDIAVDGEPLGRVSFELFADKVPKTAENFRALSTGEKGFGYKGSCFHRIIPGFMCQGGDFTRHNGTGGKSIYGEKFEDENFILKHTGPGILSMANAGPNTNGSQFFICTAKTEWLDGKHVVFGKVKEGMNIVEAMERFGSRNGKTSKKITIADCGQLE
Sequence of KRAS G13C (P01116 1-169 isoform P01116-2 G13C): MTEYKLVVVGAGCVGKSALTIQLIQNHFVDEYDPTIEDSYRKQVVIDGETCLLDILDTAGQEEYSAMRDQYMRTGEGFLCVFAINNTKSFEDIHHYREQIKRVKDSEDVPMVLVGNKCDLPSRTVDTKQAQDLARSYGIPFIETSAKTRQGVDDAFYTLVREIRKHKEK
Sequence of KRAS G13C (P62937 whole entry): as the sequence (P62937 whole entry) above
Sequence of KRAS G12C (P01116 1-169 isoform P01116-2 G12C): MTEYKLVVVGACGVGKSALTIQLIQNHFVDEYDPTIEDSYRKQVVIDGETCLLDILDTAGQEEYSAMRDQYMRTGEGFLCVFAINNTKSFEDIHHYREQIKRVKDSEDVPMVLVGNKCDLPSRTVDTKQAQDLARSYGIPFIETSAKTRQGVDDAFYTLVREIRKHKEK
Sequence of KRAS G12C (P62937 whole entry): as the sequence (P62937 whole entry) above
Sequence of KRAS G12V (P01116 1-169 isoform P01116-2 G12V limits assumed): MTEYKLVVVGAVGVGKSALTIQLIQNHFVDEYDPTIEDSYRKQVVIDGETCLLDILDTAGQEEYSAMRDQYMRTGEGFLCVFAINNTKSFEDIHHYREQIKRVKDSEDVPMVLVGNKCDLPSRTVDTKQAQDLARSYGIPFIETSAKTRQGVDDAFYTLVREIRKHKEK
Sequence of KRAS G12V (P62937 whole entry): as the sequence (P62937 whole entry) above
Sequence of KRAS G12D (P01116 1-169 isoform P01116-2 G12D limits assumed): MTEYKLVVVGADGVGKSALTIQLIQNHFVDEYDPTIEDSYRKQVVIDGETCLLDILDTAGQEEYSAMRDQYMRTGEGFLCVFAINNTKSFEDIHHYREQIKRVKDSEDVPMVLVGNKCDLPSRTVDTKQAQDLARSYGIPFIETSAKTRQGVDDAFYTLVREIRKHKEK
Sequence of KRAS G12D (P62937 whole entry): as the sequence (P62937 whole entry) above
Sequence of KRAS G13D (P01116 1-169 isoform P01116-2 G13D limits assumed): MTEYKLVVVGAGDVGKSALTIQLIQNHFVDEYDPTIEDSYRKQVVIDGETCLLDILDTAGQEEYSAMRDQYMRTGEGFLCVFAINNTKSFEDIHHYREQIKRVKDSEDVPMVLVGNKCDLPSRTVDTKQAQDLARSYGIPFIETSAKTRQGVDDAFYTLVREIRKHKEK
Sequence of KRAS G13D (P62937 whole entry): as the sequence (P62937 whole entry) above
Sequence of NRAS G12C (P01111 whole entry G12C): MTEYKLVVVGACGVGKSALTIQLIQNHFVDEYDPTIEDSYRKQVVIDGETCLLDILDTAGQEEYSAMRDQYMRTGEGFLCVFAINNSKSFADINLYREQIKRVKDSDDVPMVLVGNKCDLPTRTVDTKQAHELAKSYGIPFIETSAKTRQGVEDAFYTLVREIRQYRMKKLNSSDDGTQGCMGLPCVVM
Sequence of NRAS G12C (P62937 whole entry): as the sequence (P62937 whole entry) above
Sequence of KRAS WT (P01116 1-169 isoform P01116-2 limits assumed): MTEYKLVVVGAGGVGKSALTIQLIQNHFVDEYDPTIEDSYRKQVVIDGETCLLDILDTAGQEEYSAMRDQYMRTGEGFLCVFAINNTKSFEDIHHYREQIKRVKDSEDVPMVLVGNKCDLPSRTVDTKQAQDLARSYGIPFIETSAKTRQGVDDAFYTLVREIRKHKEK
Sequence of KRAS WT (P62937 whole entry): as the sequence (P62937 whole entry) above

On to `CCn1c(-c2cccnc2[C@H](C)OC)c2c3cc(ccc31)-c1csc(n1)C[C@H](NC(=O)[C@H](C(C)C)N(C)C(=O)[C@@H]1C[C@@H]1C)C(=O)N1CCC[C@H](N1)C(=O)OCC(C)(C)C2` [Example A239], for which the IC50 is 100 to 1000 nM in the assay on NCI-H358 (K-Ras G12C); 100 to 1000 nM in the assay with Capan-1 (K-Ras G12V); 1000 to 10000 nM on KRAS G13D (setting [1]); 1000 to 10000 nM at KRAS G12S (setting [2]); 1000 to 10000 nM on KRAS G12C (setting [3]); 1000 to 10000 nM on KRAS G12V (setting [4]). The 50% inhibitory concentration (IC50) on KRAS G12D (setting [5]), at KRAS WT (setting [6]), at KRAS G13C (setting [7]) and at NRAS G12C (setting [8]) was 1000 to 10000 nM each time.
As for `CCn1c(-c2cnccc2COC)c2c3cc(ccc31)-c1cc(O)cc(c1)C[C@H](NC(=O)[C@H](C(C)C)N(C)C(=O)C1C[C@@H]1C)C(=O)N1CCC[C@H](N1)C(=O)OCC(C)(C)C2` (stereo partly drawn) [Example A19], the IC50 in the assay with NCI-H358 (K-Ras G12C) lay within 100 to 1000 nM; in the assay on Capan-1 (K-Ras G12V) it was 100 to 1000 nM; at KRAS G13D (setting [1]) it was 100 to 1000 nM; on KRAS G12S (setting [2]), 100 to 1000 nM; on KRAS G12C (setting [3]), 10 to 100 nM; at KRAS G12V (setting [4]), 100 to 1000 nM. Moreover, the IC50 lay in the range of 1000 to 10000 nM on KRAS G12D (setting [5]), 100 to 1000 nM on KRAS WT (setting [6]), 100 to 1000 nM on KRAS G13C (setting [7]) and 100 to 1000 nM at NRAS G12C (setting [8]).
`CCN1C[C@@H](C(=O)N(C)[C@H](C(=O)N[C@H]2Cc3cc(O)cc(c3)-c3ccc4c(c3)c(c(-c3cnccc3COC)n4CC)CC(C)(C)COC(=O)[C@@H]3CCCN(N3)C2=O)C(C)C)CC1=O` [Example A262]: the IC50 is 1000 to 10000 nM in the assay on NCI-H358 (K-Ras G12C); 1000 to 10000 nM with Capan-1 (K-Ras G12V); 100 to 1000 nM at KRAS G13D (KRAS G13D FRET data IC50, KRAS G13D); 100 to 1000 nM against KRAS G12S (KRAS G12S FRET data, IC50); 10 to 100 nM against KRAS G12C (KRAS G12C FRET data, IC50); 100 to 1000 nM on KRAS G12V (KRAS G12V FRET data IC50, KRAS G12V). The IC50 against KRAS G12D (KRAS G12D FRET data, IC50) was 1000 to 10000 nM; against KRAS WT (KRAS WT FRET data IC50, KRAS WT), 100 to 1000 nM; against KRAS G13C (KRAS G13C FRET data, IC50), 100 to 1000 nM; on NRAS G12C (NRAS G12C FRET data IC50, NRAS G12C), 100 to 1000 nM.
Regarding `CCn1c(-c2cccnc2[C@H](C)OC)c2c3cc(ccc31)-c1cc(O)cc(c1)C[C@H](NC(=O)[C@H](C(C)C)N(C)C(=O)[C@H]1C[C@H]1C)C(=O)N1CCC[C@H](N1)C(=O)OCC(C)(C)C2` [Example A146], the IC50 lay within 100 to 1000 nM with NCI-H358 (K-Ras G12C); 100 to 1000 nM in the assay with Capan-1 (K-Ras G12V); 100 to 1000 nM on KRAS G13D (setting [1]); 100 to 1000 nM at KRAS G12S (setting [2]); 10 to 100 nM at KRAS G12C (setting [3]); 10 to 100 nM at KRAS G12V (setting [4]). The IC50 at KRAS G12D (setting [5]) was 100 to 1000 nM; on KRAS WT (setting [6]), 10 to 100 nM; at KRAS G13C (setting [7]), 10 to 100 nM; on NRAS G12C (setting [8]), 10 to 100 nM.
Consider `CCn1c(-c2cccnc2[C@H](C)OC)c2c3cc(ccc31)-c1cc(O)cc(c1)C[C@H](NC(=O)[C@H](C(C)C)N(C)C(=O)[C@H]1CC1(F)F)C(=O)N1CCC[C@H](N1)C(=O)OCC(C)(C)C2` [Example A166], for which the concentration for half-maximal inhibition (IC50) with NCI-H358 (K-Ras G12C) was 100 to 1000 nM; with Capan-1 (K-Ras G12V), 100 to 1000 nM; on KRAS G13D (setting [1]), 100 to 1000 nM; at KRAS G12S (setting [2]) it was 100 to 1000 nM; on KRAS G12C (setting [3]), 10 to 100 nM; on KRAS G12V (setting [4]), 100 to 1000 nM. Further, the half-maximal inhibitory concentration (IC50) on KRAS G12D (setting [5]) fell in the range of 100 to 1000 nM; on KRAS WT (setting [6]), 10 to 100 nM; at KRAS G13C (setting [7]) it was 10 to 100 nM; on NRAS G12C (setting [8]) it was 10 to 100 nM.
Regarding `CCn1c(-c2cnccc2COC)c2c3cc(ccc31)-c1cc(O)cc(c1)C[C@H](NC(=O)[C@H](C(C)C)N(C)C(=O)OC1CN(C)C1)C(=O)N1CCC[C@H](N1)C(=O)OCC(C)(C)C2` [Example A101], the half-maximal inhibitory concentration (IC50) lay in the range of 1000 to 10000 nM in the assay with NCI-H358 (K-Ras G12C); 1000 to 10000 nM with Capan-1 (K-Ras G12V); 100 to 1000 nM on KRAS G13D (setting [1]); 100 to 1000 nM on KRAS G12S (setting [2]); 100 to 1000 nM at KRAS G12C (setting [3]); 1000 to 10000 nM at KRAS G12V (setting [4]). The IC50 is 100 to 1000 nM on KRAS G12D (setting [5]), 100 to 1000 nM at KRAS WT (setting [6]), 10 to 100 nM on KRAS G13C (setting [7]) and 100 to 1000 nM on NRAS G12C (setting [8]).
